Experiment: Fluorescence Based Assay: The details of the KEAP1 KELCH ThermoFluor® Assay Construct are as follows: Kelch domain of human KEAP 1 (321-624 aa) was used in the assay. The protein was expressed in E. coli with 6His tag that was cleaved prior to receipt for use.ThermoFluor® experiments were carried out using instruments owned by Janssen Research and Discovery, L.L.C. through its acquisition of 3-Dimensional Pharmaceuticals, Inc. 1,8-ANS (Invitrogen) was used as a fluorescent dye. Protein (KEAP Kelch) and compound solutions were dispensed into black 384-well polypropylene PCR microplates (Abgene) and overlayed with silicone oil (1 μL, Fluka, type DC 200) to prevent evaporation.Reference wells contained KEAP Kelch without compounds, and the assay conditions were as follows: 1.1 μM (0.037mg/mL) KEAP Kelch, 80 μM 1,8-ANS, 25 mM PIPES, pH 7.0, 100 mM NaCl, 0.002% Tween-20.

| SMILES | Kd |
| --- | --- |
| COc1ccc2c(n1)OC1(CCOCC1)CN(Cc1cc([C@@H](c3ccn4c(C(F)F)nnc4c3C)C(C)(C)C(=O)O)ccc1C)S2(=O)=O | < 1 nM |
| Cc1ccc(C(CC(=O)O)c2ccn3c(C(F)F)nnc3c2C)cc1CN1C[C@@H]2CCCN2c2ncc(C#N)cc2S1(=O)=O (some centres undefined) | < 1 nM |
| Cc1cnc2c(c1)S(=O)(=O)N(Cc1cc([C@@H](c3ccn4c(C(F)(F)F)nnc4c3C)C(C)(C)C(=O)O)ccc1C)CC1(COC1)O2 | < 1 nM |
| Cc1ccc(C(CC(=O)O)c2ccn3c(C(F)(F)F)nnc3c2C)nc1CN1C[C@@H]2CCCCN2c2ncc(F)cc2S1(=O)=O (some centres undefined) | < 1 nM |
| Cc1ccc([C@H](c2ccn3c(C(F)(F)F)nnc3c2C)C(C)(C)C(=O)O)cc1CN1CC2(CCOCC2)Oc2nc(OCCCOCCCO)ccc2S1(=O)=O | < 1 nM |
| Cc1cnc2c(c1)S(=O)(=O)N(Cc1cc(C(c3ccn4c(C(F)(F)F)nnc4c3C)C(C)(C)C(=O)O)cnc1C)CC1(CCOCC1)O2 (centres undefined) | < 1 nM |
| Cc1cnc2c(c1)S(=O)(=O)N(Cc1cc([C@@H](c3ccn4c(C(F)(F)F)nnc4c3C)C(C)(C)C(=O)O)ncc1C)CC1(CC1)O2 | < 1 nM |
| Cc1ccc(C(CC(=O)O)c2ccn3c(C(F)F)nnc3c2C)cc1CN1C[C@H]2CCCN2c2ncc(C#N)cc2S1(=O)=O (some centres undefined) | < 1 nM |
| Cc1ccc([C@@H](CC(=O)O)c2ccn3c(C(F)(F)F)nnc3c2C)nc1CN1CC2(CC2)Oc2ncc(F)cc2S1(=O)=O | < 1 nM |
| Cc1ccc([C@@H](c2ccn3c(C(F)F)nnc3c2C)C(C)(C)C(=O)O)cc1CN1CC2(CCOCC2)Oc2nc(OCCN3CCOCC3)ccc2S1(=O)=O | < 1 nM |
| Cc1cnc2c(c1)S(=O)(=O)N(Cc1cc(C(CC(=O)O)c3ccn4c(C(F)F)nnc4c3C)ccc1C)CC1(CC1)O2 (centres undefined) | < 1 nM |
| Cc1ccc([C@H](CC(=O)O)c2ccn3c(C(F)(F)F)nnc3c2C)nc1CN1CC2(COC2)Oc2ncccc2S1(=O)=O | < 1 nM |
| Cc1ccc([C@@H](c2ccn3c(C(F)(F)F)nnc3c2C)C(C)(C)C(=O)O)cc1CN1CC2(CCOCC2)Oc2nc(OC(C)CN3CCCCC3)c(C)cc2S1(=O)=O (some centres undefined) | < 1 nM |
| Cc1ccc([C@H](CC(=O)O)c2ccn3c(C(F)F)nnc3c2C)cc1CN1C[C@@H]2CCCN2c2ncc(C#N)cc2S1(=O)=O | < 1 nM |
| Cc1ccc([C@@H](CC(=O)O)c2ccn3c(C(F)(F)F)nnc3c2C)nc1CN1C[C@H]2CCCCN2c2ncc(Cl)cc2S1(=O)=O | < 1 nM |
| Cc1ccc2c(n1)OC1(CC1)CN(Cc1cc([C@H](CC(=O)O)c3ccn4c(C(F)(F)F)nnc4c3C)ccc1C)S2(=O)=O | < 1 nM |
| Cc1cnc([C@@H](c2ccn3c(C(F)(F)F)nnc3c2C)C(C)(C)C(=O)O)cc1CN1CC2(CCOCC2)Oc2nc(OCCN3CCCC3)c(C)cc2S1(=O)=O | < 1 nM |
| Cc1ncc([C@H](c2ccn3c(C(F)(F)F)nnc3c2C)C(C)(C)C(=O)O)cc1CN1CC2(CCOCC2)Oc2ncccc2S1(=O)=O | < 1 nM |
| Cc1ccc([C@@H](c2ccn3c(C(F)F)nnc3c2C)C(C)(C)C(=O)O)nc1CN1CC2(COC2)Oc2ncccc2S1(=O)=O | < 1 nM |
| Cc1ccc(C(CC(=O)O)c2ccn3c(C(F)F)nnc3c2C)cc1CN1CC2(CCOCC2)Oc2ncc(F)cc2S1(=O)=O (centres undefined) | < 1 nM |
| CCn1nnc2c(C)c([C@H](c3ccc(C)c(CN4CC5(CCOCC5)Oc5ncccc5S4(=O)=O)n3)C(C)(C)C(=O)O)ccc21 | < 1 nM |
| Cc1ccc(C(CC(=O)O)c2ccn3c(C(F)(F)F)nnc3c2C)nc1CN1CC2CCCCN2c2ncc(Cl)cc2S1(=O)=O (centres undefined) | < 1 nM |

| SMILES | Kd |
| --- | --- |
| Cc1cnc([C@@H](c2ccn3c(C(F)(F)F)nnc3c2C)C(C)(C)C(=O)O)cc1CN1CC2(CC2)Oc2nc(OCCN3CCCCC3)c(C)cc2S1(=O)=O | < 1 nM |
| Cc1ccc([C@@H](c2ccn3c(C(F)(F)F)nnc3c2C)C(C)(C)C(=O)O)cc1CN1CC2(CC2)Oc2nc(OCCN3CCC3)c(C)cc2S1(=O)=O | < 1 nM |
| Cc1ccc([C@@H](CC(=O)O)c2ccn3c(C(F)F)nnc3c2C)cc1CN1C[C@@H]2CCCN2c2ncc(C#N)cc2S1(=O)=O | < 1 nM |
| Cc1cnc2c(c1)S(=O)(=O)N(Cc1cc([C@H](c3ccn4c(C(F)(F)F)nnc4c3C)C(C)(C)C(=O)O)cnc1C)CC1(CCOCC1)O2 | < 1 nM |
| Cc1ccc([C@H](CC(=O)O)c2ccn3c(C(F)F)nnc3c2C)cc1CN1CC2(CCOCC2)Oc2ncc(F)cc2S1(=O)=O | < 1 nM |
| Cc1cnc2c(c1)S(=O)(=O)N(Cc1cc(C(c3ccn4c(C(F)F)nnc4c3C)C(C)(C)C(=O)O)ccc1C)CC1(CCOCC1)O2 (centres undefined) | < 1 nM |
| CCn1nnc2c(C)c([C@H](c3ccc(C)c(CN4CC5(CCOCC5)Oc5ncc(C)cc5S4(=O)=O)n3)C(C)(C)C(=O)O)ccc21 | < 1 nM |
| Cc1cnc2c(c1)S(=O)(=O)N(Cc1cc([C@@H](CC(=O)O)c3ccn4c(C(F)F)nnc4c3C)ccc1C)CC1(CC1)O2 | < 1 nM |
| Cc1ccc([C@H](CC(=O)O)c2ccn3c(C(F)F)nnc3c2C)cc1CN1CC2(CC2)Oc2ncc(F)cc2S1(=O)=O | < 1 nM |
| Cc1ccc(C(CC(=O)O)c2ccn3c(C(F)(F)F)nnc3c2C)nc1CN1CC2(CC2)Oc2ncc(F)cc2S1(=O)=O (centres undefined) | < 1 nM |
| CCn1nnc2c(C)c([C@H](c3cc(CN4CC5(CC5)Oc5ncc(C)cc5S4(=O)=O)c(C)cn3)C(C)(C)C(=O)O)ccc21 | < 1 nM |
| Cc1ccc([C@H](CC(=O)O)c2ccn3c(C(F)(F)F)nnc3c2C)nc1CN1C[C@@H]2CCCCN2c2ncc(F)cc2S1(=O)=O | < 1 nM |
| Cc1ccc([C@@H](c2ccn3c(C(F)(F)F)nnc3c2C)C(C)(C)C(=O)O)cc1CN1CC2(CC2)Oc2nc(OCCN3CCOCC3)c(C)cc2S1(=O)=O | < 1 nM |
| Cc1cnc([C@@H](c2ccn3c(C(F)(F)F)nnc3c2C)C(C)(C)C(=O)O)cc1CN1CC2(CC2)Oc2nc(OCCN3CCCC3)c(C)cc2S1(=O)=O | < 1 nM |
| Cc1ccc([C@@H](c2ccn3c(C(F)(F)F)nnc3c2C)C(C)(C)C(=O)O)cc1CN1CC2(CCOCC2)Oc2nc(O[C@H](C)CN3CCCCC3)c(C)cc2S1(=O)=O | < 1 nM |
| Cc1ccc([C@H](c2ccn3c(C(F)(F)F)nnc3c2C)[C@H](C)C(=O)O)cc1CN1CC2(CC2)Oc2ncccc2S1(=O)=O | < 1 nM |
| Cc1cnc2c(c1)S(=O)(=O)N(Cc1cc([C@@H](c3ccn4c(C(F)F)nnc4c3C)C(C)(C)C(=O)O)ccc1C)CC1(CCOCC1)O2 | < 1 nM |
| CCc1c([C@@H](CC(=O)O)c2ccc(C)c(CN3C[C@H]4CCCCN4c4ncc(C)cc4S3(=O)=O)c2)ccn2c(C(F)(F)F)nnc12 | < 1 nM |
| Cc1ccc([C@@H](c2ccn3c(C(F)(F)F)nnc3c2C)C(C)(C)C(=O)O)cc1CN1CC2(CCOCC2)Oc2nc(O[C@@H](C)CN3CCCCC3)c(C)cc2S1(=O)=O | < 1 nM |
| Cc1ncc([C@@H](c2ccc3c(nnn3C3CC3)c2C)C(C)(C)C(=O)O)cc1CN1CC2(COC2)Oc2ncccc2S1(=O)=O | < 1 nM |
| Cc1cnc2c(c1)S(=O)(=O)N(Cc1cc(C(CC(=O)O)c3ccn4c(C(F)F)nnc4c3C)ccc1C)C[C@@H]1CCCCN21 (some centres undefined) | < 1 nM |
| Cc1ccc(C(CC(=O)O)c2ccn3c(C(F)F)nnc3c2C)cc1CN1CC2(CC2)Oc2ncc(Cl)cc2S1(=O)=O (centres undefined) | < 1 nM |

| SMILES | Kd |
| --- | --- |
| Cc1ccc([C@H](CC(=O)O)c2ccn3c(C(F)F)nnc3c2C)cc1CN1C[C@H]2CCCN2c2ncc(C#N)cc2S1(=O)=O | < 1 nM |
| Cc1ccc([C@@H](c2ccn3c(C(F)(F)F)nnc3c2C)C(C)(C)C(=O)O)cc1CN1CC2(CC2)Oc2nc(OCCN3CC(F)C3)c(C)cc2S1(=O)=O | < 1 nM |
| Cc1ccc([C@@H](CC(=O)O)c2ccn3c(C(F)F)nnc3c2C)cc1CN1CC2(CC2)Oc2ncc(Cl)cc2S1(=O)=O | < 1 nM |
| Cc1ccc([C@@H](CC(=O)O)c2ccn3c(C(F)F)nnc3c2C)cc1CN1CC2(CCOCC2)Oc2ncc(F)cc2S1(=O)=O | < 1 nM |
| Cc1ccc([C@@H](c2ccn3c(C(F)(F)F)nnc3c2C)C(C)(C)C(=O)O)cc1CN1CC2(CCOCC2)Oc2nc(CCC(=O)NC3CCC3)ccc2S1(=O)=O | < 1 nM |
| Cc1ccc([C@H](CC(=O)O)c2ccn3c(C(F)(F)F)nnc3c2C)nc1CN1C[C@@H]2CCCCN2c2ncc(Cl)cc2S1(=O)=O | < 1 nM |
| Cc1cnc2c(c1)S(=O)(=O)N(Cc1cc([C@@H](c3ccn4c(C(F)F)nnc4c3C)C(C)(C)C(=O)O)ccc1C)CC1(CC1)O2 | < 1 nM |
| Cc1ccc([C@H](CC(=O)O)c2ccn3c(C(F)(F)F)nnc3c2C)nc1CN1CC2(CC2)Oc2ncc(F)cc2S1(=O)=O | < 1 nM |
| Cc1ccc([C@@H](CC(=O)O)c2ccn3c(C(F)(F)F)nnc3c2C)nc1CN1C[C@@H]2CCCCN2c2ncc(Cl)cc2S1(=O)=O | < 1 nM |
| Cc1ccc(C(CC(=O)O)c2ccn3c(C(F)F)nnc3c2C)cc1CN1CC2(CCOCC2)Oc2ccc(F)cc2S1(=O)=O (centres undefined) | < 1 nM |
| Cc1ccc([C@@H](CC(=O)O)c2ccn3c(C(F)(F)F)nnc3c2C)nc1CN1C[C@@H]2CCCCN2c2ncc(F)cc2S1(=O)=O | < 1 nM |
| Cc1cnc2c(c1)S(=O)(=O)N(Cc1cc([C@@H](c3ccn4c(C(F)(F)F)nnc4c3C)C(C)(C)C(=O)O)ncc1C)CC1(CCOCC1)O2 | < 1 nM |
| Cc1ccc([C@@H](CC(=O)O)c2ccn3c(C(F)(F)F)nnc3c2C)nc1CN1CC2(COC2)Oc2ncccc2S1(=O)=O | < 1 nM |
| Cc1cnc2c(c1)S(=O)(=O)N(Cc1cc([C@H](CC(=O)O)c3ccn4c(C(F)F)nnc4c3C)ccc1C)CC1(CC1)O2 | < 1 nM |
| Cc1ccc([C@H](c2ccn3c(C(F)(F)F)nnc3c2C)C(C)(C)C(=O)O)cc1CN1CC2(CCOCC2)Oc2nc(N[C@H](C)CN3CCCCC3)c(C)cc2S1(=O)=O | < 1 nM |
| Cc1cnc2c(c1)S(=O)(=O)N(Cc1cc([C@H](c3ccn4c(C(F)(F)F)nnc4c3C)C(C)(C)C(=O)O)cnc1C)CC1(CC1)O2 | < 1 nM |
| Cc1ccc([C@@H](CC(=O)O)c2ccn3c(C(F)F)nnc3c2C)cc1CN1CC2(CC2)Oc2ncc(F)cc2S1(=O)=O | < 1 nM |
| Cc1ccc([C@@H](CC(=O)O)c2ccn3c(C(F)F)nnc3c2C)cc1CN1CC2(CCOCC2)Oc2ccc(F)cc2S1(=O)=O | < 1 nM |
| Cc1ccc([C@@H](CC(=O)O)c2ccn3c(C(F)F)nnc3c2C)cc1CN1C[C@H]2CCCN2c2ncc(C#N)cc2S1(=O)=O | < 1 nM |
| Cc1ccc(C(CC(=O)O)c2ccn3c(C(F)F)nnc3c2C)cc1CN1CC2(CC2)Oc2ncc(F)cc2S1(=O)=O (centres undefined) | < 1 nM |

Source: ChEMBL document CHEMBL5729293, “Inhibitors of KEAP1-Nrf2 protein-protein interaction” (2022)
